Values quoted from earlier work as cited in patent US7625898B2, “Posaconazole polymer conjugates and methods of treatment using posaconazole and polymer conjugates thereof” (Enzon Pharmaceuticals, Inc., priority 2007, dated 2009).

Conditions: background statement on unmodified posaconazole

**Q.** With `CC[C@@H]([C@H](C)O)n1ncn(-c2ccc(N3CCN(c4ccc(OC[C@@H]5CO[C@@](Cn6cncn6)(c6ccc(F)cc6F)C5)cc4)CC3)cc2)c1=O` [Posaconazole, posaconazole] as the molecule, how does the water solubility read?
**A.** < 2 µg/mL
